Literature values, collected in publication PMC9998351 (Steroids, 2023).

Test system: CRPC CWR22Rv1 xenograft tumors
Conditions: CWR22Rv1 xenograft; 2 at 7.53-fold lower equimolar dose than Gal; p < 0.01; ref [26]; cited from earlier work

Compound: C[C@]12CC[C@H](O)CC1=CC[C@@H]1[C@@H]2CC[C@]2(C)C(n3cnc4ccccc43)=CC[C@@H]12 [Gal, Galeterone, reference compound]
- Suppression of tumor growth: 47%
